# Reference: patent publication US20100222421A1, “Usage of Baicalein in the Preparation of a Pharmaceutical Composition for the Treatment of Traumatic Brain Injury” (National Defense Medical Center, priority 2009, published 2010)
# What was measured:
# [1] = tested on: rats with controlled cortical impact (CCI) injury; assay: Rotarod test after CCI injury; assay type: in vivo, rat; details: for performance on the rotarod test versus vehicle-treated rats: days 1 to 28, P<0.05
# Experimental: (§1) A previously described CCI injury procedure was utilized (Chen et al., 2003). Male Sprague-Dawley rats, which have body weight of 250-300 g, were anaesthetized with sodium pentobarbital (i.p.; 50 mgkg^−1; Rhone Merieux, Harlow, UK) and placed in a stereotaxic frame. A 5-mm craniotomy was performed over the left parietal cortex, centered on the coronal suture and 3 mm lateral to the sagittal suture. Considerable care was taken to avoid injury to the underlying dura. Injury was made using a pneumatic piston with a rounded metal tip (2.5 mm diameter) that was angled 22.5° C. to the vertical so that the tip was perpendicular with the brain surface at the centre of the craniotomy. A velocity of 4 ms^−1 and a deformation depth 2 mm below the dura were used. The bone flap was immediately replaced and sealed, and the scalp was closed with sutures. Body temperature was monitored throughout the surgery by a rectal probe; temperature was maintained at 37.0±0.5° C. using a heated pad. Rats were placed in a heated cage to maintain body temperature, while recovering from anaesthesia.
# Baicalein (30 mg kg^−1) dissolved in 10% dimethyl sulphoxide (0.25-0.3 mL) or a corresponding volume of vehicle (10% dimethyl sulphoxide) was administered i.p. immediately following injury or daily for 4 days (immediately, 25, 49 and 73 h) after injury. Behaviour testing using the rotarod, tactile adhesive removal, mNSS and beam walk tests was performed at 28 hours as well as 4, 7, 14, 21 and 28 days post-injury. […]
# An accelerating rotarod was used to measure rat motor function and balance (Hamm, 2001). Each rat was placed on the rotarod cylinder, and the time for which the animal remained on the rotarod was measured. […] One hour before CCI, the mean duration on the device was recorded with three rotarod measurements as the pre-injury baseline values. Post-injury latencies were expressed as a percentage of their respective baseline values to reduce inter-animal variability.
# TNF-α-positive cells = assay: Immunohistochemistry, TNF-α-positive cells after CCI injury; assay type: in vivo, rat; details: single-dose 30 mg kg^-1 i.p.; cortical tissue adjacent to contusion core, 1 day post-injury
# Experimental: as §1, with “[…] Testing after injury was as follows: (1) real-time quantitative RT-PCR analysis for TNF-α, IL-1β and IL-6 mRNA expression at 6 h post-injury (n=7 for each group); (2) FluoroJade B (FJB) staining, TNF-α, IL-1β and IL-6 immunohistochemistry, as well as ELISA at 24 h post-injury” for “Rats were placed in a heated cage”, “assess degenerative neurons and to determine cytokine expression (n=7 for each group). […]” for “maintain body temperature, while recovering from anaesthesia.”
compound,measurement,setting,value
O=c1cc(-c2ccccc2)oc2cc(O)c(O)c(O)c12 [baicalein],"rotarod test, multiple-dose versus single-dose treatment","[1]; 30 mg kg^-1 i.p., days 1, 4, 7 and 21 after injury",significantly more effective
same,performance on the rotarod test versus vehicle-treated rats,[1]; multiple-dose 30 mg kg^-1 i.p. daily for 4 days,significantly better
same,performance on the rotarod test versus vehicle-treated rats,[1]; single-dose 30 mg kg^-1 i.p. immediately after injury,significantly better
same,reduction in TNF-α-positive cells relative to vehicle,TNF-α-positive cells,37%
